# Read-outs that look alike come from different tables or passages of the source.
# Target: recombinant human NF-kappaB-inducing kinase (NIK/MAP3K14) (Homo sapiens, UniProt Q99558)
# Assay: Biological Assay B: inhibition of auto-phosphorylation of recombinant human NIK/MAP3K14 (AlphaScreen), performed at 2 locations
# Assay type: biochemical
# Conditions: AlphaScreen auto-phosphorylation, averaged values
# Protocol: Inhibition of Auto-Phosphorylation of Recombinant Human NF-kappaB-Inducing Kinase (NIK/MAP3K14) Activity (AlphaScreen®)
# NIK/MAP3K14 auto-phosphorylation activity was measured using the AlphaScreen® (αscreen) format (Perkin Elmer). All compounds tested were dissolved in dimethyl sulfoxide (DMSO) and further dilutions were made in assay buffer. Final DMSO concentration was 1% (v/v) in assays. Assay buffer was 50 mM Tris pH 7.5 containing 1 mM EGTA (ethylene glycol tetraacetic acid), 1 mM DTT (dithiothreitol), 0.1 mM Na3VO4, 5 mM MgCl2, 0.01% Tween® 20. Assays were carried out in 384 well Alphaplates (Perkin Elmer). Incubations consisted of compound, 25 microM Adenosine-5′-triphosphate (ATP), and 0.2 nM NIK/MAP3K14. Incubations were initiated by addition of GST-tagged NIK/MAP3K14 enzyme, carried out for 1 h at 25° C. and terminated by addition of stop buffer containing anti-phospho-IKK Ser176/180 antibody. Protein A Acceptor and Glutathione-Donor beads were added before reading using an EnVision® Multilabel Plate Reader (Perkin Elmer). Signal obtained in the wells containing blank samples was subtracted from all other wells and IC50's were determined by fitting a sigmoidal curve to % inhibition of control versus Log10 compound concentration.
# Assay B was performed at 2 different locations.
# Data for the compounds of the invention in the above assays are provided in Table A (the values in Table are averaged values over all measurements on all batches of a compound; values as IC50 (nM)). (‘n.c.’ means not calculated: ‘Co.’ means compound)
# [1] = location 2, read-out: Assay B location 2 IC50
# [2] = location 1, read-out: Assay B location 1 IC50
# Chain of recombinant human NF-kappaB-inducing kinase (NIK/MAP3K14) (Q99558 whole entry): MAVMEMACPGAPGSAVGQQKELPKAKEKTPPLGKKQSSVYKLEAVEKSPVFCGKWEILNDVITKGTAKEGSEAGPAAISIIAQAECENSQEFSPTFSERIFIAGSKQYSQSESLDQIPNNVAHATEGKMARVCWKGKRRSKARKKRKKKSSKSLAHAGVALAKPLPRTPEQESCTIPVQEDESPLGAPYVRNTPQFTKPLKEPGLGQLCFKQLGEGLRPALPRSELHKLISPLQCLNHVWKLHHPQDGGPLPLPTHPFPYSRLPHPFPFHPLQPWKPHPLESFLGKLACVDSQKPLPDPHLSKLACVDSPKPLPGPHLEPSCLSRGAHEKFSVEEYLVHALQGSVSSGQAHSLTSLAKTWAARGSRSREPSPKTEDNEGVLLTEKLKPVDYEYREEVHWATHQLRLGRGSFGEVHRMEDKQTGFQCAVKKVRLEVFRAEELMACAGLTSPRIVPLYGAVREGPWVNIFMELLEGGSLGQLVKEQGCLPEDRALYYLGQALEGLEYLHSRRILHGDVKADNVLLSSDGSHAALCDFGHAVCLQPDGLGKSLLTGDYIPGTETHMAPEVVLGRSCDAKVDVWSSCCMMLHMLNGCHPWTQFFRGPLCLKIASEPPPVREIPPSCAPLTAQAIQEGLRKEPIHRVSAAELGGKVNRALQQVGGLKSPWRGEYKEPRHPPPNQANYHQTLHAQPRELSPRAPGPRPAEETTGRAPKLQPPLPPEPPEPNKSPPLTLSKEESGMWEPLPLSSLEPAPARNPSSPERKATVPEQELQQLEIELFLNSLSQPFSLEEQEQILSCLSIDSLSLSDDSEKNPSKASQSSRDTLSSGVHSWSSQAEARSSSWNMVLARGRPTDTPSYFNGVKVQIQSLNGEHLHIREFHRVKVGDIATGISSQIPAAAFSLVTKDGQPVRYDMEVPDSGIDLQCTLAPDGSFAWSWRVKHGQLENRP
Structure (SMILES),IC50 [1],IC50 [2]
CNC(=O)c1ccc(C)c(Nc2nccc(-c3cnc4c(c3)C(C)(CO)CN4)n2)c1 (stereo not shown) [Compound 219],61.7 nM,
COc1ccc(C)c(Nc2nccc(-c3cnc4c(c3)C(C)(CO)CN4)n2)c1 (stereo not shown) [Compound 220],2.5 nM,
COc1ccc(NC(C)=O)cc1Nc1nccc(-c2cnc3c(c2)C(C)(CO)CN3)n1 (stereo not shown) [Compound 221],10.5 nM,
COc1ccc(Cl)c(Nc2nccc(-c3cnc4c(c3)C(C)(CO)CN4)n2)c1 (stereo not shown) [Compound 222],2.6 nM,
Cc1c(C#N)cccc1Nc1nccc(-c2cnc3c(c2)C(C)(CO)CN3)n1 (stereo not shown) [Compound 223],63.1 nM,
Cc1c(Cl)cccc1Nc1nccc(-c2cnc3c(c2)C(C)(CO)CN3)n1 (stereo not shown) [Compound 224],38 nM,
COc1cccc(Nc2nccc(-c3cnc4c(c3)C(C)(CO)CN4)n2)c1Cl (stereo not shown) [Compound 225],10.2 nM,13.2 nM
COc1cc(C#N)c(C)c(Nc2nccc(-c3cnc4c(c3)C(C)(CO)CN4)n2)c1 (stereo not shown) [Compound 226],4.1 nM,7.4 nM
CC1(CO)CNc2ncc(-c3ccnc(Nc4cccc(Cl)c4Cl)n3)cc21 (stereo not shown) [Compound 227],41.7 nM,72.4 nM
COc1cc(OC2CCN(C)CC2)ccc1Nc1nccc(-c2cnc3c(c2)C(C)(CO)CN3)n1 (stereo not shown) [Compound 228],26.3 nM,
COc1cc(OC2CCN(C)C2)ccc1Nc1nccc(-c2cnc3c(c2)C(C)(CO)CN3)n1 (stereo not shown) [Compound 229],37.2 nM,45.7 nM
COc1cc(Cl)c(C)c(Nc2nccc(-c3cnc4c(c3)C(C)(CO)CN4)n2)c1 (stereo not shown) [Compound 230],6.6 nM,7.4 nM
CCN1CCC(Oc2ccc(Nc3nccc(-c4cnc5c(c4)C(C)(CO)CN5)n3)c(OC)c2)C1 (stereo not shown) [Compound 233],33.1 nM,32.4 nM
[2H]C([2H])([2H])c1ccccc1Nc1nccc(-c2cnc3c(c2)C(C)(CO)CN3)n1 (stereo not shown) [Compound 234],38.9 nM,61.7 nM
COc1ccc(N2CCN(C)CC2)cc1Nc1nccc(-c2cnc3c(c2)C(C)(CO)CN3)n1 (stereo not shown) [Compound 238],> 10000 nM,~6610 nM
COc1ccc(-c2cnn(C)c2)cc1Nc1nccc(-c2cnc3c(c2)C(C)(CO)CN3)n1 (stereo not shown) [Compound 239],355 nM,389 nM

# The remaining lines, values ahead:
IC50 [1],IC50 [2],Structure (SMILES)
~3090 nM,1860 nM,COc1ccc(N2CCOCC2)cc1Nc1nccc(-c2cnc3c(c2)C(C)(CO)CN3)n1 (stereo not shown) [Compound 241]
13.8 nM,35.5 nM,COc1cc(N2CC3(CCOCC3)C2)ccc1Nc1nccc(-c2cnc3c(c2)C(C)(CO)CN3)n1 (stereo not shown) [Compound 242]
10 nM,,COc1cc(N2CCOCC2)c(F)cc1Nc1nccc(-c2cnc3c(c2)C(C)(CO)CN3)n1 (stereo not shown) [Compound 243]
3.6 nM,,COc1cc(N2CCC(C#N)CC2)c(Cl)cc1Nc1nccc(-c2cnc3c(c2)C(C)(CO)CN3)n1 (stereo not shown) [Compound 245]
22.4 nM,38 nM,CC1(CO)CNc2ncc(-c3ccnc(Nc4ccccc4OC4CCOCC4)n3)cc21 (stereo not shown) [Compound 247]
1230 nM,912 nM,COc1cccc(F)c1Nc1nccc(-c2cnc3c(c2)C(C)(CO)CN3)n1 (stereo not shown) [Compound 250]
6760 nM,> 10000 nM,COc1cccc(Cl)c1Nc1nccc(-c2cnc3c(c2)C(C)(CO)CN3)n1 (stereo not shown) [Compound 251]
7.4 nM,,COCCCN(C)c1cc(OC)c(Nc2nccc(-c3cnc4c(c3)C(C)(CO)CN4)n2)cc1Cl (stereo not shown) [Compound 252]
0.7 nM,4.5 nM,CCN1CCN(c2cc(OC)c(Nc3nccc(-c4cnc5c(c4)C(C)(CO)CN5)n3)cc2Cl)CC1 (stereo not shown) [Compound 268]
5.8 nM,21.4 nM,COc1cc(N2CC(OC)C2)c(F)cc1Nc1nccc(-c2cnc3c(c2)C(C)(CO)CN3)n1 (stereo not shown) [Compound 270]
2.6 nM,10.2 nM,COc1cc(N2CCN(C)CC2)c(F)cc1Nc1nccc(-c2cnc3c(c2)C(C)(CO)CN3)n1 (stereo not shown) [Compound 271]
2.6 nM,4 nM,CCN1CCN(c2cc(OC)c(Nc3nccc(-c4cnc5c(c4)C(C)(CO)CN5)n3)cc2F)CC1 (stereo not shown) [Compound 275]
